Test [1] concerns the target T1, GST-hPPARγ2 (Homo sapiens, UniProt P37231).
T1 construct: the complete cDNA of the human PPAR was cloned into pGEX4T2; made in house; host or cells: Escherichia coli BL21 (DE3)
T1 sequence (P37231 1-505): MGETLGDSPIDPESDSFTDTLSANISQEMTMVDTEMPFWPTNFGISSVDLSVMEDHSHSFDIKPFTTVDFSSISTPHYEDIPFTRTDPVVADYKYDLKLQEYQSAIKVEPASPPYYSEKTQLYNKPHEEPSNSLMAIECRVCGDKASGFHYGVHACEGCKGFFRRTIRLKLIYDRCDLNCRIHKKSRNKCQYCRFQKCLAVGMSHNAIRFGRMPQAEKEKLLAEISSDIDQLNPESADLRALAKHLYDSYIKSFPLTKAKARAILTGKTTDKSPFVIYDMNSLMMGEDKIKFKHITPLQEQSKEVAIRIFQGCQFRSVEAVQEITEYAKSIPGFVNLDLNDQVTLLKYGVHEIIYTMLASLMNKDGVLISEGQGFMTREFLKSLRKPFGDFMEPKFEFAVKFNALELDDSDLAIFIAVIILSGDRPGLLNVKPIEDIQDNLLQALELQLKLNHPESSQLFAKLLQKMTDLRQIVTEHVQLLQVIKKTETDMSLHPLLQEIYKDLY
The test can be described thus: PPARγ2 binding assay ([3H]BRL-49853 displacement). To be noted: GST-hPPARγ2, [3H]BRL-49853 100 nM, 3 h at 4° C.; read-out: Affinity PPARγ. How it is done:
The cDNA encoding for the open reading frame of the hPPARγ2 was amplified by PCR (polymerase chain reaction) and inserted in the plasmid pGEX-4T-2. This construction (pGEX-hPPARγ) was introduced into E. coli where it was overexpressed and semipurified as a fusion protein with glutathione S-transferase (GST) (Elbrecht et al., J. Biol. Chem. 1999, 274, 7913-7922). The binding of the compounds to the GST-hPPARγ2 s was determined by modifications in the method described by Lehmann et al. (J. Biol. Chem. 1995, 270, 12953-12957). The receptors (2.5 μg) were incubated in 96-well plates in the presence or in the absence of the products with [^3H]BRL-49853 (100 nM) for 3 h at 4° C., in a final volume of 200 μL of buffer Tris-HCl 10 mM pH:8.0, containing KCl 50 mM and DTT 10 mM. Non-specific binding was determined in the presence of BRL49853 100 μM. The reaction mixture was transferred to a Multiscreen Durapore (Millipore) microplate containing glutathione-Sepharose 4B in every well. The reaction mixture was left to incubate with the resin during 10 min, and then centrifuged at 735 g during 2 min. To dissociate the receptor bound to the resin, reduced glutathione 10 mM is added and incubated during 10 min. The receptor was eluted by centrifugation. Then, scintillation liquid was added to the elution and the contained radioactivity was quantified by liquid scintillation spectroscopy (Microbeta Wallac, Perkin Elmer).
The human PPAR cDNA was amplified through RT-PCR. For hPPARγ2, RNA was obtained from human white adipose tissue. Each amplified fragment was cloned into pBluescript (Stratagene®) and sequenced. One clone for each construction was selected and used as template for further subcloning and PCR amplifications.
GST-Fused Protein Construction
To generate this chimeric protein, the complete cDNA of the human PPAR was cloned into pGEX4T2 (Amersham Biosciences). The fragment was obtained from the pBluescript-cDNAs clones digested with endonucleases. To assess the plasmid identity and to ensure the in-phase cloning of the proteins, pGEX construction was sequenced. GST-hPPARγ2 fusion protein was generated in Escherichia coli (BL21 strain DE3). Cells were cultured in LB medium to a density of A600=1.6 odu, and induced for overexpression by addition of isopropyl-1-thio-β-D-galactopyranoside (IPTG)-induced cultures to a final concentration of 0.5 mM. The IPTG-induced cultures were grown at room temperature o/n, before cells were harvested by centrifugation at 5000 g for 15 min. After sonication, the GST-fusion protein was purified from the cell pellet using glutathione-Sepharose beads, following the procedure recommended by the manufacturer (Amersham Pharmacia Biotech). Excess of gluthatione was removed o/n by dyalisis at 4° C. Receptor purity was visualized by SDS-PAGE and protein content was determined by Bradford method. Receptor aliquots were stored at −80° C. until use.

Test [2] deals with T2, GAL4 DNA binding domain fused to the PPARγ LBD (Homo sapiens, UniProt P37231).
T2 construct: expressed in transfected cells; host or cells: COS-7
T2 sequence (P37231 238-503 limits assumed): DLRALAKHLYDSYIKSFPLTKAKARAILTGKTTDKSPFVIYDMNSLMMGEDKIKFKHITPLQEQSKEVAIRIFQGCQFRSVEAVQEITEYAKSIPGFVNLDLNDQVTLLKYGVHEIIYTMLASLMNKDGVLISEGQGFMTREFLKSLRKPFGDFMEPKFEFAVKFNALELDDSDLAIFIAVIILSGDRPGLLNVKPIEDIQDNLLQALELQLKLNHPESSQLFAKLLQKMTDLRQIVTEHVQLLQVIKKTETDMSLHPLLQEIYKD
The test can be described thus: LBD-hPPARs transactivation assay (GAL4-luciferase reporter in COS-7 cells). It is filed as cell-based. The following applies: 48 h. From the text:
LBD-hPPARs Transactivation Assay
COS-7 cells were cultivated in 24-well plates and transfected with the pFACMV plasmids that encode the chimeric proteins containing the GAL4 DNA binding domain fused to the PPARγ LBD. The reporter plasmid for the foregoing constructions was pFR-Luc, which contains five repetitions of the GAL4-response element in front of a promoter that controls the transcription of the luciferase gene. Lipofectamine was used as a transfection agent. The plasmids of the chimeric receptors and the reporter gene were inserted in the cells by transitory transfection in COS-7 cells in culture.

Take `CCC(=O)N(CCOc1ccc(C[C@H](Nc2ccccc2C(=O)c2ccccc2)C(=O)O)cc1)c1ccc(Cl)cc1` [I_121]: in test [1], the Ki was in the range of 500 to 1500 nM. Moreover, the “Functional activity PPARγ” value in test [2] is listed as “ANTAGONIST”.

For the molecule `C=CC(=O)N(CCCOc1ccc(C[C@H](Nc2ccccc2C(=O)c2ccccc2)C(=O)O)cc1)c1ccc(Cl)cc1` [I_128, (S)-3-(4-{3-[Acryloyl-(4-chlorophenyl)-amino]propoxy}phenyl)-2-(2-benzoylphenylamino)propionic acid], in test [1], the Ki was in the range of 500 to 1500 nM.

`Cc1ccc(N(CCOc2ccc(C[C@H](Nc3ccccc3C(=O)c3ccccc3)C(=O)O)cc2)C(=O)C(C)C)cc1` [I_149, (S)-2-(2-Benzoylphenylamino)-3-{4-[2-(isobutyryl-p-tolylamino)ethoxy]-phenyl}propionic acid]: the Ki in test [1] is over 1500 nM.

Regarding `O=C(c1ccccc1)c1ccccc1N[C@@H](Cc1ccc(OCCCN(Cc2ccccc2)C(=O)C#Cc2ccccc2)cc1)C(=O)O` [I_178, (S)-2-(2-Benzoylphenylamino)-3-(4-{3-[benzyl-(3-phenylpropynoyl)amino]-propoxy}phenyl)propionic acid], the Ki in test [1] was under 500 nM.

For the molecule `O=C(c1ccccc1)c1ccccc1N[C@@H](Cc1ccc(OCCCN(Cc2ccccc2)C(=O)Cc2cccnc2)cc1)C(=O)O` [I_198, (S)-2-(2-Benzoylphenylamino)-3-(4-{3-[benzyl-(2-pyridin-3-ylacetyl)-amino]propoxy}phenyl)propionic acid], the Ki in test [1] lay within 500 to 1500 nM. Also, the “Functional activity PPARγ” value in test [2] is recorded as “PARTIAL AGONIST”.

As to `O=C(c1ccccc1)c1ccccc1N[C@@H](Cc1ccc(OCCCN(CC2CC2)C(=O)Cc2ccccc2)cc1)C(=O)O` [I_262, (S)-2-(2-Benzoylphenylamino)-3-{4-[3-(cyclopropylmethylphenylacetylamino)propoxy]phenyl}propionic acid], the Ki in test [1] was under 500 nM. Besides, in test [2], the “Functional activity PPARγ” value is recorded as “AGONIST”.

For `O=C(c1ccccc1)c1ccccc1N[C@@H](Cc1ccc(OCCN(CC2CC2)C(=O)C=Cc2cccs2)cc1)C(=O)O` [I_265, (S)-2-(2-Benzoylphenylamino)-3-(4-{2-[cyclopropylmethyl-(3-thiophen-2-ylacryloyl)amino]ethoxy}phenyl)-propionic acid], the Ki in test [1] is under 500 nM. The “Functional activity PPARγ” value in test [2] is recorded as “AGONIST”.

Regarding `O=C(c1ccccc1)c1ccccc1N[C@@H](Cc1ccc(OCCCN(CC2CC2)C(=O)C2CCCC2)cc1)C(=O)O` [I_280, (S)-2-(2-Benzoylphenylamino)-3-{4-[3-(cyclopentanecarbonylcyclopropylmethylamino)propoxy]phenyl}propionic acid], the Ki in test [1] is under 500 nM.

Take `O=C(c1ccccc1)c1ccccc1N[C@@H](Cc1ccc(OCCN(C(=O)c2cc3ccccc3cn2)c2ccccc2)cc1)C(=O)O` [I_303, (S)-2-(2-Benzoylphenylamino)-3-(4-{2-[(isoquinoline-3-carbonyl)-phenylamino]ethoxy}phenyl)propionic acid]: in test [1], the Ki is under 500 nM.

On to `CC(C)(C)N(CCOc1ccc(C[C@H](Nc2ccccc2C(=O)c2ccccc2)C(=O)O)cc1)C(=O)C1CCC1` [I_375, (S)-2-(2-Benzoylphenylamino)-3-{4-[2-(tert-butylcyclobutanecarbonylamino)-ethoxy]phenyl}propionic acid], for which the Ki in test [1] is under 500 nM. The “Functional activity PPARγ” value in test [2] is recorded as “PARTIAL AGONIST”.

With `O=C(c1ccccc1)c1ccccc1N[C@@H](Cc1ccc(OCCN(Cc2ccccc2F)c2ccccc2Cl)cc1)C(=O)O` [I_379, (S)-2-(2-Benzoylphenylamino)-3-(4-{2-[(2-chlorophenyl)-(2-fluorobenzyl)-amino]ethoxy}phenyl)propionic acid], in test [1], the Ki was in the range of 500 to 1500 nM.

Turning to `COc1cccc(CN(CCCOc2ccc(C[C@H](Nc3ccccc3C(=O)c3ccccc3)C(=O)O)cc2)c2ccccc2)c1` [I_391, (S)-2-(2-Benzoylphenylamino)-3-(4-{3-[(3-methoxybenzyl)phenylamino]-propoxy}phenyl)propionic acid], the Ki in test [1] lay in the range of 500 to 1500 nM.

Turning to `Cc1cccc(N(CCCOc2ccc(C[C@H](Nc3ccccc3C(=O)c3ccccc3)C(=O)O)cc2)CC(C)C)c1` [I_410, (S)-2-(2-Benzoylphenylamino)-3-(4-{3-[isobutyl-m-tolylamino]propoxy}-phenyl)propionic acid], the Ki in test [1] was under 500 nM. For the same molecule, the “Functional activity PPARγ” value in test [2] is “ANTAGONIST”.

Regarding `Cc1ccccc1N(CCOc1ccc(C[C@H](Nc2ccccc2C(=O)c2ccccc2)C(=O)O)cc1)CC1CCC1` [I_412, (S)-2-(2-Benzoylphenylamino)-3-{4-[2-(cyclobutylmethyl-o-tolylamino)-ethoxy]phenyl}propionic acid], the Ki in test [1] was under 500 nM.

Regarding `O=C(c1ccccc1)c1ccccc1N[C@@H](Cc1ccc(OCCCN(Cc2ccccc2)CC2CC2)cc1)C(=O)O` [I_418, (S)-2-(2-Benzoylphenylamino)-3-{4-[3-(benzylcyclopropylmethylamino)-propoxy]phenyl}propionic acid], in test [1], the Ki lay within 500 to 1500 nM. Besides, the “Functional activity PPARγ” value in test [2] was “PARTIAL AGONIST”.

Regarding `CC(=O)N(CCOc1ccc(C[C@H](Nc2ccccc2C(=O)c2ccccc2)C(=O)O)cc1)c1ccc2ccccc2c1` [I_438, (S)-3-{4-[2-(Acetylnaphthalen-2-ylamino)ethoxy]phenyl}-2-(2-benzoylphenylamino)propionic acid], the Ki in test [1] was 500 to 1500 nM.

As to `C/C=C/C(=O)N(CCOc1ccc(C[C@H](Nc2ccccc2C(=O)c2ccccc2)C(=O)O)cc1)c1cccc(SC)c1` [I_440, (S)-2-(2-Benzoylphenylamino)-3-(4-{2-[but-2-(E)-enoyl-(3-methylsulfanylphenyl)amino]ethoxy}-phenyl)propionic acid], in test [1], the Ki fell in the range of 500 to 1500 nM.

`O=C(c1ccccc1)c1ccccc1N[C@@H](Cc1ccc(OCCN(Cc2cccs2)c2ccccc2)cc1)C(=O)O` [I_467, (S)-2-(2-Benzoylphenylamino)-3-{4-[2-(phenylthiophen-2-ylmethylamino)-ethoxy]phenyl}propionic acid]: the Ki in test [1] was under 500 nM.

Turning to `COCCC(=O)N(CCOc1ccc(C[C@H](Nc2ccccc2C(=O)c2ccccc2)C(=O)O)cc1)Cc1ccccc1` [I_469, (S)-2-(2-Benzoylphenylamino)-3-(4-{2-[benzyl-(3-methoxypropionyl)-amino]ethoxy}phenyl)propionic acid], in test [1], the Ki is 500 to 1500 nM.

The values above are taken from patent US7423172B2 (Laboratorios Salvat, S.A., priority 2004, dated 2008).
